From ChEMBL document CHEMBL4507272 (2021)

Tests used:
[1] = target: Serine/threonine-protein kinase MARK1 (Homo sapiens) (UniProt Q9P0L2); conditions: Compound concentration 1000.0 nM
[2] = target: Death-associated protein kinase 2 (Homo sapiens) (UniProt Q9UIK4); conditions: Compound concentration 1000.0 nM
[3] = target: Serine/threonine-protein kinase 16 (Homo sapiens) (UniProt O75716); conditions: Compound concentration 1000.0 nM
[4] = target: TRAF2 and NCK-interacting protein kinase (Homo sapiens) (UniProt Q9UKE5); conditions: Compound concentration 1000.0 nM
[5] = target: Mitogen-activated protein kinase 7 (Homo sapiens) (UniProt Q13164); conditions: Compound concentration 1000.0 nM
[6] = target: Serine/threonine-protein kinase BRSK1 (Homo sapiens) (UniProt Q8TDC3); conditions: Compound concentration 1000.0 nM
[7] = target: Mitogen-activated protein kinase kinase kinase kinase 4 (Homo sapiens) (UniProt O95819); conditions: Compound concentration 1000.0 nM
[8] = target: Serine/threonine-protein kinase SIK2 (Homo sapiens) (UniProt Q9H0K1); conditions: Compound concentration 1000.0 nM
[9] = target: Ribosomal protein S6 kinase alpha-1 (Homo sapiens) (UniProt Q15418); conditions: Compound concentration 1000.0 nM
[10] = target: Epithelial discoidin domain-containing receptor 1 (Homo sapiens) (UniProt Q08345); conditions: Compound concentration 1000.0 nM
[11] = target: Ribosomal protein S6 kinase alpha-4 (Homo sapiens) (UniProt O75676); conditions: Compound concentration 1000.0 nM
[12] = target: Serine/threonine-protein kinase 38-like (Homo sapiens) (UniProt Q9Y2H1); conditions: Compound concentration 1000.0 nM
[13] = target: Ribosomal protein S6 kinase alpha-5 (Homo sapiens) (UniProt O75582); conditions: Compound concentration 1000.0 nM
[14] = target: Cyclin-dependent kinase 17 (Homo sapiens) (UniProt Q00537); conditions: Compound concentration 1000.0 nM
[15] = target: Serine/threonine-protein kinase B-raf (Homo sapiens) (UniProt P15056); conditions: Compound concentration 1000.0 nM
[16] = target: Calcium/calmodulin-dependent protein kinase type II subunit beta (Homo sapiens) (UniProt Q13554); conditions: Compound concentration 1000.0 nM
[17] = target: Cyclin-dependent kinase-like 5 (Homo sapiens) (UniProt O76039); conditions: Compound concentration 1000.0 nM
[18] = target: Dual specificity protein kinase CLK2 (Homo sapiens) (UniProt P49760); conditions: Compound concentration 1000.0 nM
[19] = target: Ribosomal protein S6 kinase alpha-6 (Homo sapiens) (UniProt Q9UK32); conditions: Compound concentration 1000.0 nM
[20] = target: Serine/threonine-protein kinase D3 (Homo sapiens) (UniProt O94806); conditions: Compound concentration 1000.0 nM
[21] = target: Receptor tyrosine-protein kinase erbB-4 (Homo sapiens) (UniProt Q15303); conditions: Compound concentration 1000.0 nM
[22] = target: Ephrin type-B receptor 6 (Homo sapiens) (UniProt O15197); conditions: Compound concentration 1000.0 nM
[23] = target: Serine/threonine-protein kinase Nek9 (Homo sapiens) (UniProt Q8TD19); conditions: Compound concentration 1000.0 nM
[24] = target: Dual specificity tyrosine-phosphorylation-regulated kinase 1A (Homo sapiens) (UniProt Q13627); conditions: Compound concentration 1000.0 nM
[25] = target: Uncharacterized serine/threonine-protein kinase SBK3 (Homo sapiens) (UniProt P0C264); conditions: Compound concentration 1000.0 nM
[26] = target: Serine/threonine-protein kinase PAK 5 (Homo sapiens) (UniProt Q9P286); conditions: Compound concentration 1000.0 nM
[27] = target: Ribosomal protein S6 kinase alpha-2 (Homo sapiens) (UniProt Q15349); conditions: Compound concentration 1000.0 nM
[28] = target: Serine/threonine-protein kinase MRCK alpha (Homo sapiens) (UniProt Q5VT25); conditions: Compound concentration 1000.0 nM
[29] = target: Ephrin type-A receptor 3 (Homo sapiens) (UniProt P29320); conditions: Compound concentration 1000.0 nM
[30] = target: Serine/threonine-protein kinase DCLK3 (Homo sapiens) (UniProt Q9C098); conditions: Compound concentration 1000.0 nM
[31] = system: Mast/stem cell growth factor receptor Kit (Homo sapiens), P10721 [A829P]; conditions: Compound concentration 1000.0 nM
[32] = target: Serine/threonine-protein kinase MAK (Homo sapiens) (UniProt P20794); conditions: Compound concentration 1000.0 nM
[33] = target: Mitogen-activated protein kinase kinase kinase kinase 3 (Homo sapiens) (UniProt Q8IVH8); conditions: Compound concentration 1000.0 nM
[34] = target: D(1A) dopamine receptor (Homo sapiens) (UniProt P21728); conditions: Compound concentration 10.0 uM
[35] = target: Serine/threonine-protein kinase Sgk2 (Homo sapiens) (UniProt Q9HBY8); conditions: Compound concentration 1000.0 nM
[36] = target: Mitogen-activated protein kinase kinase kinase 12 (Homo sapiens) (UniProt Q12852); conditions: Compound concentration 1000.0 nM
[37] = target: Phosphatidylinositol 3-kinase C2 domain-containing subunit gamma (Homo sapiens) (UniProt O75747); conditions: Compound concentration 1000.0 nM
[38] = target: Tyrosine-protein kinase FRK (Homo sapiens) (UniProt P42685); conditions: Compound concentration 1000.0 nM
[39] = target: Mitogen-activated protein kinase 14 (Homo sapiens) (UniProt Q16539); conditions: Compound concentration 1000.0 nM
[40] = system: Phosphatidylinositol 4,5-bisphosphate 3-kinase catalytic subunit alpha isoform (Homo sapiens), P42336 [C420R]; conditions: Compound concentration 1000.0 nM
[41] = target: Receptor-interacting serine/threonine-protein kinase 2 (Homo sapiens) (UniProt O43353); conditions: Compound concentration 1000.0 nM
[42] = target: RAC-gamma serine/threonine-protein kinase (Homo sapiens) (UniProt Q9Y243); conditions: Compound concentration 1000.0 nM
[43] = target: Calcium/calmodulin-dependent protein kinase kinase 2 (Homo sapiens) (UniProt Q96RR4); conditions: Compound concentration 1000.0 nM
[44] = target: Insulin-like growth factor 1 receptor (Homo sapiens) (UniProt P08069); conditions: Compound concentration 1000.0 nM
[45] = target: Serine/threonine-protein kinase TAO3 (Homo sapiens) (UniProt Q9H2K8); conditions: Compound concentration 1000.0 nM

Chain of Insulin-like growth factor 1 receptor (Homo sapiens) (P08069 31-736 limits assumed): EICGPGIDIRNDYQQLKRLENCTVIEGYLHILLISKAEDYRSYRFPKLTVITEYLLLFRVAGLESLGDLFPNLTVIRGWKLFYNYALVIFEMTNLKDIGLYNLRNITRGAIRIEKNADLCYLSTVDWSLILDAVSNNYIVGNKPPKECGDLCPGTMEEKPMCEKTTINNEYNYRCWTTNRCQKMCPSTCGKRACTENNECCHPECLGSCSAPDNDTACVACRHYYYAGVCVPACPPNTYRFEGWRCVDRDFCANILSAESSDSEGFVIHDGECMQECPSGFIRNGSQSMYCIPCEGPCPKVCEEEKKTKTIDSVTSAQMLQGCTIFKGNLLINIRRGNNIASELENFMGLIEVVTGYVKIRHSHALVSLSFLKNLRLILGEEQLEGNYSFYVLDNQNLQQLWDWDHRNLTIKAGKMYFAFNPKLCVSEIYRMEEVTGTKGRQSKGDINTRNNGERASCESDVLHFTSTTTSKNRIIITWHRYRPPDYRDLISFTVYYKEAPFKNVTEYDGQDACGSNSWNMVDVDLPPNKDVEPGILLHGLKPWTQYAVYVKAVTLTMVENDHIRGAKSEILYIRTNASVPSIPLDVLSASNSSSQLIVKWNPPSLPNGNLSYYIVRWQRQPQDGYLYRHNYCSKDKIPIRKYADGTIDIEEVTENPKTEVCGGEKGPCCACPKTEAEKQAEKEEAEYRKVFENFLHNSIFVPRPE
Chain of Insulin-like growth factor 1 receptor (Homo sapiens) (P08069 741-1367 limits assumed): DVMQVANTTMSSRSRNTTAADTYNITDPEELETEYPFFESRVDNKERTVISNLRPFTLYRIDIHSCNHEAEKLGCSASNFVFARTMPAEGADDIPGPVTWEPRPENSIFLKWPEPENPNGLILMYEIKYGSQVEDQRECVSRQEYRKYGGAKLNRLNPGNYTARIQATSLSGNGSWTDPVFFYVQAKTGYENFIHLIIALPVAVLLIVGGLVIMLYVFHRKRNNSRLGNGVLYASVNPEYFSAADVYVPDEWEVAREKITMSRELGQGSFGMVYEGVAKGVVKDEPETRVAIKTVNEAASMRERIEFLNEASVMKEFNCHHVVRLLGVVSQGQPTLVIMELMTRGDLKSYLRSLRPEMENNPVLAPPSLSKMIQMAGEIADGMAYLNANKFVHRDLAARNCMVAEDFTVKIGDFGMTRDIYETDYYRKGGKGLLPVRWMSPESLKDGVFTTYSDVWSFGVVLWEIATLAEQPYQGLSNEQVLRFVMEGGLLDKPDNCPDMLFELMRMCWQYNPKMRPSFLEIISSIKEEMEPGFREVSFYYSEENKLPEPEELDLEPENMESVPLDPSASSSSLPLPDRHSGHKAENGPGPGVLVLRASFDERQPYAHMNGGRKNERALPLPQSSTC
Chain of Receptor tyrosine-protein kinase erbB-4 (Homo sapiens) (Q15303 whole entry): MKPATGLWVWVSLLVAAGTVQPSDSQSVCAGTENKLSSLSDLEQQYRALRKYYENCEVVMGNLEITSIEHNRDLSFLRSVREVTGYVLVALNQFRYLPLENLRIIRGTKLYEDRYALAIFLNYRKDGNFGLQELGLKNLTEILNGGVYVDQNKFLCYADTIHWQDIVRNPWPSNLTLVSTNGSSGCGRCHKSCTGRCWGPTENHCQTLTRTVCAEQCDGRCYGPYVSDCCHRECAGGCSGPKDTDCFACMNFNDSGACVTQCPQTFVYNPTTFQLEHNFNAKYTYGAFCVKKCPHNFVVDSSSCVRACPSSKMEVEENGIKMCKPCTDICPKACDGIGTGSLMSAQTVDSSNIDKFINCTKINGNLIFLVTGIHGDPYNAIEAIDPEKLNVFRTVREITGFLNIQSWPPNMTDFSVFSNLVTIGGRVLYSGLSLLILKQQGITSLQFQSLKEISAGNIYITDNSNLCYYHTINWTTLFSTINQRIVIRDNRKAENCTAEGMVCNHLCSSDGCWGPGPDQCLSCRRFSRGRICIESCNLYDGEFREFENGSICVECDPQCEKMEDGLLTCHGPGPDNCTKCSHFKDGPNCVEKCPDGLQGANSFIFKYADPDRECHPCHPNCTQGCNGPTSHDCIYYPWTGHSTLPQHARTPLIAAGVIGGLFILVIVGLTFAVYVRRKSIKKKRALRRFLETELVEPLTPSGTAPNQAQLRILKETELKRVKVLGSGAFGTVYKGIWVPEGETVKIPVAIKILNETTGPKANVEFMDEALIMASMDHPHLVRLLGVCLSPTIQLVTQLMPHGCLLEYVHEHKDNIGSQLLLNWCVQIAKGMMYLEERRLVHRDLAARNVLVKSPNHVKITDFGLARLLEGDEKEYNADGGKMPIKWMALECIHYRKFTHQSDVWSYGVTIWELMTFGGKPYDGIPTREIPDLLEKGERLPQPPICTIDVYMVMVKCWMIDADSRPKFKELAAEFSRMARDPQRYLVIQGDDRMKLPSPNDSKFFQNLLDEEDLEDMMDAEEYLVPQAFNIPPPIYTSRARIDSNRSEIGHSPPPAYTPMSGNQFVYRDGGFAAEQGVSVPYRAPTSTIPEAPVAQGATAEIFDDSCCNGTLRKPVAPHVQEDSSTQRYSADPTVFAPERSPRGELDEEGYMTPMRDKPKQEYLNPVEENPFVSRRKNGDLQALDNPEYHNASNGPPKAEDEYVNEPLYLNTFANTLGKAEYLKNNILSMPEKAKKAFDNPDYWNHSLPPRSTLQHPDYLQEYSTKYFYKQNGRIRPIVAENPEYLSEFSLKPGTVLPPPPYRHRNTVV
Chain of Serine/threonine-protein kinase Nek9 (Homo sapiens) (Q8TD19 whole entry): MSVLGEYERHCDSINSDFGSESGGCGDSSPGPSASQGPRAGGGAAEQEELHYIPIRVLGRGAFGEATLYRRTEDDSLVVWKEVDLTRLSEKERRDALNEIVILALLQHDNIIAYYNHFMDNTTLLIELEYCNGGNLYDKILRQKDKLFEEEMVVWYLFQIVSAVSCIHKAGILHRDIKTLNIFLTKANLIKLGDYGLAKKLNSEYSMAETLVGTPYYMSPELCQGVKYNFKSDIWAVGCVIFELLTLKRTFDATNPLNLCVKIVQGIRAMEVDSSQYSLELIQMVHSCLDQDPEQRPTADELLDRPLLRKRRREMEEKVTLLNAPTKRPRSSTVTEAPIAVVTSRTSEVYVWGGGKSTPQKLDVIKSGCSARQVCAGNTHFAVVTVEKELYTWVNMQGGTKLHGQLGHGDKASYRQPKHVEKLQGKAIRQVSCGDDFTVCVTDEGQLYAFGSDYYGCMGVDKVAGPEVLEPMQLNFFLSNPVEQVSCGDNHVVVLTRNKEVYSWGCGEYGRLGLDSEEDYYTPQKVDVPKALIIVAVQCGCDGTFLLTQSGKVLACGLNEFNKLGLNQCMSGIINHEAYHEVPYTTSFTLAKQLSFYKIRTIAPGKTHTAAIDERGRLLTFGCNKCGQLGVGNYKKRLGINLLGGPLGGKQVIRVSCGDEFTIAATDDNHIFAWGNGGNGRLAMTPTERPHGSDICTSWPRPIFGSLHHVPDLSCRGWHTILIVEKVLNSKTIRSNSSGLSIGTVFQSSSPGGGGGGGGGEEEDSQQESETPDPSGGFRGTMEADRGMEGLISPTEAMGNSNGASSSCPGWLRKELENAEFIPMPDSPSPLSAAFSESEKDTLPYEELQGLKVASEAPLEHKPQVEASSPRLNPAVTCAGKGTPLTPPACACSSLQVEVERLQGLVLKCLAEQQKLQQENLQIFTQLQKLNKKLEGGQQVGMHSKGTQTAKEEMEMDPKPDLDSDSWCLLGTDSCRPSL
Chain of Serine/threonine-protein kinase SIK2 (Homo sapiens) (Q9H0K1 whole entry, looked up): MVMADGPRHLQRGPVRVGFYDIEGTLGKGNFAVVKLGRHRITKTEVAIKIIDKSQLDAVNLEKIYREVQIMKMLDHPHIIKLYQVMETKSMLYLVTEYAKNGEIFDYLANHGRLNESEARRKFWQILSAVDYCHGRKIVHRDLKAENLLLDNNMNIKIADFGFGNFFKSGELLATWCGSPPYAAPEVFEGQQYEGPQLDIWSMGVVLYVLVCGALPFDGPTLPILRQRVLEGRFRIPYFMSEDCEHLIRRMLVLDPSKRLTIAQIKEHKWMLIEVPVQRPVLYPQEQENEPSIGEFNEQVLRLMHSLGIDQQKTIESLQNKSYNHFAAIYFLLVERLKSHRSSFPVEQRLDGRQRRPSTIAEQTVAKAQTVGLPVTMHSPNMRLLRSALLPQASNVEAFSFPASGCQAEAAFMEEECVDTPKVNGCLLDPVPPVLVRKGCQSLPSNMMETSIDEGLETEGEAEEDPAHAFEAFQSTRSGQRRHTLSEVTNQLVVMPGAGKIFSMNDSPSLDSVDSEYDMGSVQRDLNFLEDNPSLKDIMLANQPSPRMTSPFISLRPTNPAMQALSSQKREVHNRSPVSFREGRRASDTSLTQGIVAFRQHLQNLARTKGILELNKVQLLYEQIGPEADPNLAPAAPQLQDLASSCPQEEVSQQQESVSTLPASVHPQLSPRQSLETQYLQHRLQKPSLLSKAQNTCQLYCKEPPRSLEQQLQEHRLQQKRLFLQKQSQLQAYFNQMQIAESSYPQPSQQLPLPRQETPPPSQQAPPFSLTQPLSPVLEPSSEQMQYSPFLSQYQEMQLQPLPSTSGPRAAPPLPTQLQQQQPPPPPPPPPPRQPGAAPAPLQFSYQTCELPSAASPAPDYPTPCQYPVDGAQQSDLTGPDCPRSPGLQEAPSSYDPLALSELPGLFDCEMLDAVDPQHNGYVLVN
Chain of D(1A) dopamine receptor (Homo sapiens) (P21728 whole entry): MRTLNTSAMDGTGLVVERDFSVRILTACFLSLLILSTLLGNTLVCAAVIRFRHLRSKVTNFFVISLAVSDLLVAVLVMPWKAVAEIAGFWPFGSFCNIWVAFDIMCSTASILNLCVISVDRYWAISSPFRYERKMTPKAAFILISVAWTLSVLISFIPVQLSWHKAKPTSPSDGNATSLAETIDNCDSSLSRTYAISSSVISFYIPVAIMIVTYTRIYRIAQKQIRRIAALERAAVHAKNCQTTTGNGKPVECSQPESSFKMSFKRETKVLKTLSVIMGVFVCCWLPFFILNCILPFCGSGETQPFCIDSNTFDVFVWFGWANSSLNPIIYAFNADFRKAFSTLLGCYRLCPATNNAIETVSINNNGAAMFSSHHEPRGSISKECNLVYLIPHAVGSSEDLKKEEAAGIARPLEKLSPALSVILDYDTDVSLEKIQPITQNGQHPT

CC(=O)C1=C(C)N(c2cccc(C(F)(F)F)c2)C(=O)N[C@@H]1c1ccc(C#N)nc1 [BAY-678]
inactive: residual activity [1] 100% | residual activity [2] 79.2% | residual activity [3] 84.6% | residual activity [4] 90.8% | residual activity [5] 100% | residual activity [6] 100% | residual activity [7] 99.3% | residual activity [8] 87.8% | residual activity [9] 91.5% | residual activity [10] 71.5% | residual activity [11] 78.8% | residual activity [12] 93.6% | residual activity [13] 89.2% | residual activity [14] 100% | residual activity [15] 78.5% | residual activity [16] 95.7% | residual activity [17] 100% | residual activity [18] 100% | residual activity [19] 87.7% | residual activity [20] 78% | residual activity [21] 90.8% | residual activity [22] 85% | residual activity [23] 100% | residual activity [24] 100% | residual activity [25] 100% | residual activity [26] 96.2% | residual activity [27] 100% | residual activity [28] 100% | residual activity [29] 100% | residual activity [30] 53.9% | residual activity [31] 80.8% | residual activity [32] 82.5% | residual activity [33] 83.5% | inhibition [34] -8.4% | residual activity [35] 100% | residual activity [36] 86.8% | residual activity [37] 78.2% | residual activity [38] 100% | residual activity [39] 100% | residual activity [40] 100% | residual activity [41] 98.7% | residual activity [42] 90.6% | residual activity [43] 100% | residual activity [44] 100% | residual activity [45] 73%
